Test results from US20160052898A1, “NOVEL COMPOUNDS” (BAYER PHARMA AKTIENGESELLSCHAFT, priority 2013, published 2016).
Read-outs that look alike come from different tables or passages of the source.

Legend:
[1] = tested on: HCT116 FOP control reporter cell line; assay: HCT116 FOP control vector reporter assay (non-functional TCF elements); type: cell-based; conditions: HCT116 FOP control reporter cells, luciferase expression, 36 hours incubation, 50 μM to 15 nM, read-out: HCT116 FOPFlash IC50
Protocol: (§1) In a parallel approach, HCT116 cells were cotransfected with the FOP control vector and pcDNA3. The FOP vector is identical to the TOP construct, but it contains instead of functional TCF elements a randomized, non-functional sequence. For this transfection a stable transfected cell line was generated as well.
(§2) In preparation of the assay, the two cell lines were plated 24 hrs before at 10000 cells per well of a 384 micro titre plate (MTP) in 30 μL growth medium. Selective inhibitory activity for small molecules on the mutated Wnt pathway was determined after parallel incubation of both (TOP and FOP) HCT116 reporter cell lines with a compound dilution series from 50 μM to 15 nM in steps of 3.16-fold dilutions in CAFTY buffer (130 mM NaCl, 5 mM KCl, 20 mM HEPES, 1 mM MgCl2, 5 mM NaHCO3, pH 7.4) containing 2 mM Ca^2+ and 0.01% BSA. The compounds were thereby serially prediluted in 100% DMSO and thereafter in addition 50 fold into the CAFTY compound dilution buffer (described above). From this dilution 10 μL were added to the cells in 30 μL growth medium and incubated for 36 hours at 37° C. and 5% CO2. Thereafter luciferase assay buffer (1:1 mixture of luciferase substrate buffer (20 mM Tricine, 2.67 mM MgSO4, 0.1 mM EDTA, 4 mM DTT, 270 μM Coenzyme A, 470 μM Luciferin, 530 μM ATP, ph adjusted to pH 7.8 with a sufficient volume of 5M NaOH) and Triton buffer (30 mL Triton X-100, 115 mL glycerol, 308 mg Dithiothreitol, 4.45 g Na2HPO4.2 H2O, 3.03 g Tris.HCL, ad 1 l H20, pH 7.8) was added as equal volume to the compound solution on the cells to determine luciferase expression as a measure of Wnt signaling activity in a luminometer.

[2] = tested on: constitutive active colorectal cancer cell (CRC) Wnt pathway; assay: HCT116 Super TopFlash cellular reporter assay (constitutive active Wnt pathway); type: cell-based; conditions: HCT116 TOP reporter cells, luciferase expression, 36 hours incubation, 50 μM to 15 nM
Protocol: In order to discover and characterize small molecules which inhibit the constitutive active colorectal cancer cell (CRC) Wnt pathway, a cellular reporter assay was employed. The corresponding assay cell was generated by transfection of the colorectal cancer cell line HCT116 (ATCC, #CCL-247) with the Super TopFlash vector (Morin, Science 275, 1997, 1787-1790; Molenaar et al., Cell 86 (3), 1996, 391-399). The HCT116 cell line is cultivated at 37° C. and 5% CO2 in DMEM/F-12 (Life Technologies, #11320-074), supplemented with 2 mM glutamine, 20 mM HEPES, 1.4 mM pyruvate, 0.15% Na-bicarbonate and 10% foetal bovine serum (GIBCO, #10270), this cancer cell line is pathophysiological relevant since it carries a deletion of position S45 in the β-catenin gene, leading to constitutive active Wnt signaling. Stable transfectants were generated by cotransfection with pcDNA3 and selection of stable transfected cells with 1 mg/ml G418.
as §1, §2

SMILES | IC50 ([1]; Homo sapiens, HCT-116, 36 h) [nM] | IC50 ([2]; Homo sapiens, HCT-116, 36 h) [nM] | IC50 [1] [nM] | IC50 [2] [nM]
O=C(CN1CCOCC1)Nc1cc(C(=O)Nc2ccc(-c3ccccc3)cc2)ccc1OCCO [Example 93, N-(biphenyl-4-yl)-4-(2-hydroxyethoxy)-3-[(morpholin-4-ylacetyl)amino]benzamide] | ≥ 50000 | 194 |  | 
CCC(C(=O)Nc1cc(C(=O)Nc2ccc(-c3ccccc3)cc2)ccc1OC)N1CCOCC1 (stereo not shown) [Example 99, N-(biphenyl-4-yl)-4-methoxy-3-{[2-(morpholin-4-yl)butanoyl]amino}benzamide] | ≥ 50000 | 380 |  | 
O=C(CN1CCOCC1)Nc1cc(C(=O)Nc2ccc(-c3ccccc3)cc2)ccc1C(=O)NCCCN1CCCC1 [Example 103, N^4-(biphenyl-4-yl)-2-[(morpholin-4-ylacetyl)amino]-N-[3-(pyrrolidin-1-yl)propyl]terephthalamide] | 7400 | 302 |  | 
CN(C)CCCNC(=O)c1ccc(C(=O)Nc2ccc(-c3ccccc3)cc2)cc1NC(=O)CN1CCOCC1 [Example 104, N^4-(biphenyl-4-yl)-N^1-[3-(dimethylamino)propyl]-2-[(morpholin-4-ylacetyl)amino]terephthalamide] | 7400 | 534 |  | 
CN(C)CCNC(=O)c1ccc(C(=O)Nc2ccc(-c3ccccc3)cc2)cc1NC(=O)CN1CCOCC1 [Example 105, formic acid —N^4-(biphenyl-4-yl)-N^1-[2-(dimethylamino)ethyl]-2-[(morpholin-4-ylacetyl)amino]terephthalamide (1:1)] | 7800 | 552 |  | 
C[S+]([O-])c1ccc(C(=O)Nc2ccc(-c3ccccc3)cc2)cc1NC(=O)CN1CCOCC1 (stereo not shown) [Example 110, N-(biphenyl-4-yl)-4-(methylsulfinyl)-3-[(morpholin-4-ylacetyl)amino]benzamide] | 6500 | 366 |  | 
CS(=O)(=O)c1ccc(C(=O)Nc2ccc(-c3ccccc3)cc2)cc1NC(=O)CN1CCOCC1 [Example 111, N-(biphenyl-4-yl)-4-(methylsulfonyl)-3-[(morpholin-4-ylacetyl)amino]benzamide] | ≥ 50000 | 162 |  | 
O=C(Nc1ccc(-c2ccccc2)cc1)c1ccc(OC2CC2)c(NC(=O)C2(N3CCOCC3)CC2)c1 [Example 113, N-(biphenyl-4-yl)-4-(cyclopropyloxy)-3-({[1-(morpholin-4-yl)cyclopropyl]carbonyl}amino)benzamide] | ≥ 50000 | 159 |  | 
NC(=O)c1ccc(C(=O)Nc2ccc(-c3ccccc3)cc2)cc1NC(=O)CN1CCOCC1 [Example 116, N^4-(Biphenyl-4-yl)-2-[(morpholin-4-ylacetyl)amino]terephthalamide] | ≥ 50000 | 132 |  | 
CC(C)(O)c1ccc(C(=O)Nc2ccc(-c3ccccc3)cc2)cc1NC(=O)CN1CCOCC1 [Example 117, N-(biphenyl-4-yl)-4-(2-hydroxypropan-2-yl)-3-[(morpholin-4-ylacetyl)amino]benzamide] | ≥ 50000 | 153 |  | 
COc1ccc(NC(=O)c2ccc(-c3ccc(NC(C)=O)cc3)cc2)cc1NC(=O)CN1CCOCC1 [Example 118, 4′-acetamido-N-{4-methoxy-3-[(morpholin-4-ylacetyl)amino]phenyl}biphenyl-4-carboxamide] | ≥ 50000 | 960 |  | 
CNc1ccc(-c2ccc(C(=O)Nc3ccc(OC)c(NC(=O)CN4CCOCC4)c3)cc2)cc1 [Example 119, N-{4-methoxy-3-[(morpholin-4-ylacetyl)amino]phenyl}-4′-(methylamino)biphenyl-4-carboxamide] | ≥ 50000 | 260 |  | 
COc1ccc(NC(=O)c2ccc(-c3ccc(CN)cc3)cc2)cc1NC(=O)CN1CCOCC1 [Example 120, 4′-(aminomethyl)-N-{4-methoxy-3-[(morpholin-4-ylacetyl)amino]phenyl}biphenyl-4-carboxamide] | ≥ 50000 | 755 |  | 
O=C(CN1CCOCC1)Nc1cc(C(=O)Nc2ccc(-c3ccccc3)cc2)ccc1OCCCO [Example 121, N-(biphenyl-4-yl)-4-(3-hydroxypropoxy)-3-[(morpholin-4-ylacetyl)amino]benzamide] | ≥ 50000 | 237 |  | 
NC(=O)COc1ccc(C(=O)Nc2ccc(-c3ccccc3)cc2)cc1NC(=O)CN1CCOCC1 [Example 122, 4-(2-amino-2-oxoethoxy)-N-(biphenyl-4-yl)-3-[(morpholin-4-ylacetyl)amino]benzamide] | 15500 | 338 |  | 
COc1ccc(C(=O)Nc2ccc(-c3cc(F)cc(F)c3)c(F)c2)cc1NC(=O)CN1CCOCC1 [Example 123, 4-methoxy-3-[(morpholin-4-ylacetyl)amino]-N-(2,3′,5′-trifluorobiphenyl-4-yl)benzamide] | ≥ 50000 | 400 |  | 
CN1CCN(CC(=O)Nc2cc(C(=O)Nc3ccc(-c4ccccc4)cc3)ccc2CS(C)(=O)=O)CC1 [Example 125, N-(biphenyl-4-yl)-3-{[(4-methylpiperazin-1-yl)acetyl]amino}-4-[(methylsulfonyl)methyl]benzamide] | 8900 | 105 |  | 
CC(=O)NCCCOc1ccc(C(=O)Nc2ccc(-c3ccccc3)cc2)cc1NC(=O)CN1CCOCC1 [Example 126, 4-(3-acetamidopropoxy)-N-(biphenyl-4-yl)-3-[(morpholin-4-ylacetyl)amino]benzamide] | ≥ 50000 | 222 |  | 
O=C(CN1CC2CCC(C1)O2)Nc1cc(C(=O)Nc2ccc(-c3ccccc3)cc2)ccc1OC1CC1 [Example 128, N-(biphenyl-4-yl)-4-(cyclopropyloxy)-3-[(8-oxa-3-azabicyclo[3.2.1]oct-3-ylacetyl)amino]benzamide] | ≥ 50000 | 74 |  | 
COc1ccc(NC(=O)c2ccc(-c3ccccc3)cc2)cc1NC(=O)C1(NC(=O)OC(C)(C)C)CC1 [Example 129, tert-butyl[1-({5-[(biphenyl-4-ylcarbonyl)amino]-2-methoxyphenyl}carbamoyl)cyclopropyl]carbamate] | 11000 | 195 |  | 
COCCNCC(=O)Nc1cc(NC(=O)c2ccc(-c3ccccc3)cc2)ccc1OC(F)(F)F [Example 130, N-[3-{[N-(2-methoxyethyl)glycyl]amino} -4-(trifluoromethoxy)phenyl] biphenyl-4-carboxamide] | 28000 | 248 |  | 
COc1ccc(C(=O)Nc2ccc(-c3ccccc3)cc2)cc1NC(=O)C1(N2CCN(C)CC2)CC1 [Example 133, N-(biphenyl-4-yl)-4-methoxy-3-({[1-(4-methylpiperazin-1-yl)cyclopropyl]carbonyl}amino)benzamide] |  |  | 30000 | 362
COc1c(F)cc(C(=O)Nc2ccc(-c3ccccc3)cc2)cc1NC(=O)CN1CCOCC1 [Example 134, N-(biphenyl-4-yl)-3-fluoro-4-methoxy-5-[(morpholin-4-ylacetyl)amino]benzamide] | ≥ 50000 | 398 |  | 
NC(C(=O)Nc1cc(NC(=O)c2ccc(-c3ccccc3)cc2)ccc1OC(F)(F)F)C(F)(F)F (stereo not shown) [Example 135, N-{3-[(333-trifluoroalanyl)amino]-4-[trifluoromethoxy)phenyl) biphenyl-4-carboxamide] | ≥ 50000 | 592 |  | 
COc1c(Cl)cc(C(=O)Nc2ccc(-c3ccccc3)cc2)cc1NC(=O)CN1CCOCC1 [Example 136, N-(biphenyl-4-yl)-3-chloro-4-methoxy-5-[(morpholin-4-ylacetyl]amino]benzamide] | 38500 | 750 |  | 
COc1ccc(C(=O)Nc2ccc(-c3ccccc3)cc2)cc1NC(=O)[C@@H](C(C)C)N1CCOCC1 [Example 137, N-(biphenyl-4-yl)-4-methoxy-3-{[(2R)-3-methyl-2-(morpholin-4-yl)butanoyl]amino} benzamide] | 33000 | 925 |  | 
